Calls of active or inactive are those of the source. The calls are words filed in the database; no cut-off is given here.
Columns and labels:
Plasmodium falciparum [1] = test: Antiplasmodial activity against synchronized ring stage DHA-induced quiescent artemisinin-resistant Plasmodium falciparum F32 assessed as decrease in parasite recrudescence by measuring time required for parasites to reach initial parasitemia at 200 nM pretreated with dihydroartemisinin for 6 hrs followed by compound administration for 48 hrs in presence of dihydroartemisinin by quiescent-stage survival assay; type: functional
Plasmodium falciparum [2] = test: Antiplasmodial activity against synchronized ring stage artemisinin-resistant Plasmodium falciparum F32 assessed as decrease in parasite recrudescence by measuring time required for parasites to reach initial parasitemia at 200 nM incubated for 48 hrs by recrudescence assay; type: functional
[3] = Cytotoxicity against African green monkey Vero cells assessed as cell metabolic activity incubated for 48 hrs by MTT assay; type: toxicity, cell-based; conditions: chlorocebus sabaeus
Plasmodium falciparum [4] = test: Antiplasmodial activity against atovaquone-resistant Plasmodium falciparum clinical isolate Q120 assessed as inhibition of parasite growth incubated for 48 hrs of SYBR green fluorescence-based method; type: functional, organism-based
Plasmodium falciparum [5] = test: Antiplasmodial activity against chloroquine-resistant Plasmodium falciparum clinical isolate IPC8461 assessed as inhibition of parasite growth incubated for 48 hrs of SYBR green fluorescence-based method; type: functional, organism-based
Plasmodium falciparum [6] = test: Antiplasmodial activity against artemisinin-sensitive Plasmodium falciparum F32 assessed as inhibition of parasite growth incubated for 48 hrs of SYBR green fluorescence-based method; type: functional, organism-based; conditions: F32, 48 h
Plasmodium falciparum [7] = test: Antiplasmodial activity against chloroquine-resistant Plasmodium falciparum clinical isolate IPC8262 assessed as inhibition of parasite growth incubated for 48 hrs of SYBR green fluorescence-based method; type: functional, organism-based
Heme [8] = test: Inhibition of heme polymerization in acetate buffer at pH 5 assessed as reduction in beta-hematin formation at 2.0 molequiv incubated for 18 hrs by infrared spectroscopic analysis relative to control
Heme [9] = test: Inhibition of heme polymerization in acetate buffer at pH 5 assessed as reduction in beta-hematin formation at 15 equiv incubated for 18 hrs by infrared spectroscopic analysis relative to control
Plasmodium falciparum [10] = test: Antiplasmodial activity against artemisinin-resistant Plasmodium falciparum F32 assessed as inhibition of parasite growth incubated for 48 hrs of SYBR green fluorescence-based method; type: functional, organism-based; conditions: F32, 48 h
Plasmodium falciparum [11] = test: Antiplasmodial activity against synchronized ring stage DHA-induced quiescent artemisinin-resistant Plasmodium falciparum F32 assessed as decrease in parasite recrudescence at 1 uM pretreated with dihydroartemisinin for 6 hrs followed by compound administration for 48 hrs in presence of dihydroartemisinin by quiescent-stage survival assay; type: functional, organism-based
[12] = Selectivity index, ratio of CC50 for cytotoxicity against African green monkey Vero cells to IC50 for antiplasmodial activity against artemisinin-resistant Plasmodium falciparum F32; type: toxicity, cell-based; conditions: read-out: Ratio CC50/IC50
Heme [13] = test: Inhibition of heme polymerization in acetate buffer at pH 5 assessed as reduction in beta-hematin formation at 10 molequiv incubated for 18 hrs by infrared spectroscopic analysis
Heme [14] = test: Inhibition of heme polymerization in acetate buffer at pH 5 assessed as reduction in beta-hematin formation at 5 equiv incubated for 18 hrs by infrared spectroscopic analysis relative to control
Plasmodium falciparum [15] = test: Antiplasmodial activity against synchronized ring stage DHA-induced quiescent artemisinin-resistant Plasmodium falciparum F32 assessed as decrease in parasite recrudescence by measuring time required for parasites to reach initial parasitemia at 1 uM pretreated with dihydroartemisinin for 6 hrs followed by compound administration for 48 hrs in presence of dihydroartemisinin by quiescent-stage survival assay; type: functional
Plasmodium falciparum [16] = test: Antiplasmodial activity against synchronized ring stage artemisinin-resistant Plasmodium falciparum F32 assessed as decrease in parasite recrudescence by measuring time required for parasites to reach initial parasitemia at 1 uM incubated for 48 hrs by recrudescence assay; type: functional
Plasmodium falciparum [17] = test: Antiplasmodial activity against synchronized ring stage artemisinin-resistant Plasmodium falciparum F32 assessed as number of days required to reach 3% initial parasitemia by measuring median recrudescence time at 7 uM incubated for 48 hrs by recrudescence assay; type: functional
Plasmodium falciparum [18] = test: Antiplasmodial activity against synchronized ring stage artemisinin-sensitive Plasmodium falciparum F32 assessed as number of days required to reach 3% initial parasitemia by measuring median recrudescence time at 7 uM incubated for 48 hrs by recrudescence assay; type: functional
Plasmodium falciparum [19] = test: Antiplasmodial activity against synchronized ring stage artemisinin-resistant Plasmodium falciparum F32 assessed as decrease in parasite recrudescence by measuring time required for parasites to reach initial parasitemia at […] incubated for 54 hrs by recrudescence assay; type: functional
[20] = Inhibition of recombinant Plasmodium falciparum 3D7 FIKK8 by enzyme-coupled assay
Plasmodium falciparum [21] = test: Antiplasmodial activity against Plasmodium falciparum; type: functional, organism-based
[22] = test system: Plasmodium vinckei petteri; test: Antiplasmodial activity Plasmodium vinckei petteri infected in female Swiss mouse model assessed as reduction in parasitemia at 25 mg/kg/day, po administered for 4 days starting from 4 hrs post infection and measured on day 5 by giemsa staining based analysis relative to control; type: functional; parameters: scale not given: the % may be the effect or the level left; conditions: time 5 day
Plasmodium falciparum [23] = test: Antiplasmodial activity against synchronized ring stage artemisinin-sensitive Plasmodium falciparum F32 assessed as number of days required to reach 3% initial parasitemia by measuring median recrudescence time at 0.5 uM incubated for 48 hrs by recrudescence assay; type: functional
[24] = Thermal stability at 60 degreeC incubated for 2 months; type: physicochemical; conditions: 1460 h
[25] = Toxicity in female Swiss mouse model infected with Plasmodium vinckei petteri assessed as clinical signs at 0.1 to 10 mg/kg/day, ip administered for 4 days and measured after 30 days; type: organism-based; conditions: in vivo, 720 h, dose 0.1-10 mg/kg/day, time 30 day
[26] = test system: Plasmodium vinckei petteri; test: Antiplasmodial activity Plasmodium vinckei petteri infected in female Swiss mouse model assessed as reduction in parasitemia at 1 mg/kg/day, ip administered for 4 days starting from 4 hrs post infection and measured on day 5 by giemsa staining based analysis relative to control; type: functional; parameters: scale not given: the % may be the effect or the level left; conditions: time 5 day
Plasmodium falciparum [27] = test: Antiplasmodial activity against synchronized ring stage artemisinin-sensitive Plasmodium falciparum F32 assessed as number of days required to reach 3% initial parasitemia by measuring median recrudescence time at 1 uM incubated for 48 hrs by recrudescence assay; type: functional
Heme [28] = test: Inhibition of heme polymerization in acetate buffer at pH 5 assessed as reduction in beta-hematin formation at 1.2 molar ratio of drug to hemin incubated for 18 hrs by infrared spectroscopic analysis relative to control
[29] = test system: Plasmodium vinckei petteri; test: Antiplasmodial activity Plasmodium vinckei petteri infected in female Swiss mouse model assessed as reduction in parasitemia at 10 mg/kg/day, ip administered for 4 days starting from 4 hrs post infection and measured on day 5 by giemsa staining based analysis; type: functional, organism-based; conditions: time 5.0 day
[30] = test system: Plasmodium vinckei petteri; test: Antiplasmodial activity Plasmodium vinckei petteri infected in female Swiss mouse model assessed as reduction in parasitemia administered intraperitoneally for 4 days starting from 4 hrs post infection and measured on day 30; type: functional; conditions: 720 h, route ip, time 30 day
[31] = test system: Plasmodium vinckei petteri; test: Antiplasmodial activity Plasmodium vinckei petteri infected in female Swiss mouse model assessed as reduction in parasitemia at 10 mg/kg/day, ip administered for 4 days starting from 4 hrs post infection and measured on day 30 by giemsa staining based analysis; type: functional, organism-based; conditions: time 30.0 day
[32] = test system: Plasmodium vinckei petteri; test: Antiplasmodial activity Plasmodium vinckei petteri infected in female Swiss mouse model assessed as reduction in parasitemia administered orally for 4 days starting from 4 hrs post infection and measured on day 30; type: functional; conditions: 720 h, route po, time 30 day
[33] = Stability in human plasma assessed as parent compound remaining at 1 uM measured after 2 hrs by LC-MS/MS analysis; type: ADME, cell-free; conditions: read-out: Stability
Plasmodium falciparum [34] = test: Antiplasmodial activity against synchronized ring stage artemisinin-resistant Plasmodium falciparum F32 assessed as number of days required to reach 3% initial parasitemia by measuring median recrudescence time at 0.5 uM incubated for 48 hrs by recrudescence assay; type: functional
[35] = test system: Plasmodium vinckei petteri; test: Antiplasmodial activity Plasmodium vinckei petteri infected in female Swiss mouse model assessed as reduction in parasitemia at 0.1 mg/kg/day, ip administered for 4 days starting from 4 hrs post infection and measured on day 5 by giemsa staining based analysis; type: functional, organism-based; conditions: time 5.0 day
[36] = Metabolic stability in human liver microsomes assessed as half-life at 1 uM measured after 1 hrs by LC-MS/MS analysis; type: ADME, Microsome
[37] = Metabolic stability in human liver microsomes at 1 uM measured after 1 hrs by LC-MS/MS analysis; type: ADME, Microsome
Plasmodium falciparum [38] = test: Antiplasmodial activity against synchronized ring stage artemisinin-resistant Plasmodium falciparum F32 assessed as number of days required to reach 3% initial parasitemia by measuring median recrudescence time at 1 uM incubated for 48 hrs by recrudescence assay; type: functional
Plasmodium falciparum [39] = test: Antiplasmodial activity against synchronized ring stage artemisinin-sensitive Plasmodium falciparum F32 assessed as number of days required to reach 3% initial parasitemia by measuring median recrudescence time at 18 uM incubated for 48 hrs by recrudescence assay; type: functional
[40] = test system: Plasmodium vinckei petteri; test: Antiplasmodial activity Plasmodium vinckei petteri infected in female Swiss albino mouse model assessed as reduction in parasitemia administered orally for 4 days and measured on day 5; type: functional; conditions: 120 h, route po, time 5 day
[41] = test system: Plasmodium vinckei petteri; test: Antiplasmodial activity Plasmodium vinckei petteri infected in female Swiss albino mouse model assessed as reduction in parasitemia administered intraperitoneally for 4 days and measured on day 5; type: functional; conditions: 120 h, route ip, time 5 day
Plasmodium falciparum [42] = test: Antiplasmodial activity against synchronized ring stage artemisinin-resistant Plasmodium falciparum F32 assessed as number of days required to reach 3% initial parasitemia by measuring median recrudescence time at 18 uM incubated for 48 hrs by recrudescence assay; type: functional

Row | SMILES | CC50 at 48 h [3] [nM] | IC50 (Plasmodium falciparum [4]) [nM] | IC50 (Plasmodium falciparum [5]) [nM] | IC50 (Plasmodium falciparum [6]) [nM] | IC50 (Plasmodium falciparum [7]) [nM] | IC50 (Plasmodium falciparum [10]) [nM] | selectivity ratio [12] | further results
1 | CCN(CC)CCCC(C)Nc1ccnc2cc(Cl)ccc12 (configuration not stated) [CHLOROQUINE] | > 50000 | – | – | – | – | – | – | Time (Plasmodium falciparum [1]): 8 days; Time (Plasmodium falciparum [2]): >20 days
2 | NCCNc1ccnc2cc(Cl)ccc12 | > 50000 | 2300 | 354 | 28 | 134 | 54 | > 925 | inhibition (Heme [8]): inactive; inhibition (Heme [9]): 100%; Activity (Plasmodium falciparum [11]): inactive; inhibition (Heme [13]): inactive
3 | CCOCCOc1cc(O)c2c(c1)C(=O)c1cc(C)cc(O)c1C2=O | – | – | – | > 10000 | – | > 10000 | – | Activity (Plasmodium falciparum [11]): inactive; inhibition (Heme [14]): 100%
4 | O=C1C(O)=C([C@H]2CC[C@H](c3ccc(Cl)cc3)CC2)C(=O)c2ccccc21 [ATOVAQUONE] | 7000 | 4700 | 1 | – | 0.7 | 1.9 | 3700 | Time (Plasmodium falciparum [15]): 20 days; Time (Plasmodium falciparum [16]): 14 days; Time (Plasmodium falciparum [17]): 16 days; Time (Plasmodium falciparum [18]): 13 days
5 | Clc1ccc([C@@H](c2ccccc2)N2CCNCC2)cc1 | 20000 | 9000 | – | 6000 | – | > 10000 | < 2 | inhibition (Heme [8]): inactive; Activity (Plasmodium falciparum [11]): inactive; inhibition (Heme [13]): inactive
6 | C[C@H]1[C@@H](O)O[C@@H]2O[C@@]3(C)CC[C@H]4[C@H](C)CC[C@@H]1[C@@]24OO3 [ARTENIMOL] | 30000 | 2.4 | 2.6 | 2.2 | 2.5 | – | 12000 | Time (Plasmodium falciparum [19]): 8 days
7 | Clc1ccc2c(N3CCNCC3)ccnc2c1 | – | – | – | 1400 | – | 1310 | – | –
8 | Cc1cc(O)c2c(c1)C(=O)c1cc(OCCOCCN3CCN(c4ccnc5cc(Cl)ccc45)CC3)cc(O)c1C2=O | 12000 | – | – | – | – | 825 | 15 | –
9 | Cc1cc(O)c2c(c1)C(=O)c1cc(O)cc(O)c1C2=O [EMODIN] | 34000 | – | – | – | – | > 50000 | < 0.7 | IC50 [20]: 2000 nM; IC50 (Plasmodium falciparum [21]): > 10000 nM
10 | Cc1cc(O)c2c(c1)C(=O)c1cc(OCCOCCNCCNc3ccnc4cc(Cl)ccc34)cc(O)c1C2=O | 12000 | 24 | 84 | 59 | 33 | 54 | 222 | Activity [22]: 44%; Time (Plasmodium falciparum [23]): 26 days; Stability [24]: Stable; Activity [25]: Non-toxic; Activity [26]: 17%; Time (Plasmodium falciparum [27]): >30 days; inhibition (Heme [28]): 100%; Activity [29]: Not active; No Detectable Parasitemia Observed; ED50 [30]: 4 mg/kg/day; Activity [31]: Active; Recrudescence Not Observed; Time (Plasmodium falciparum [15]): >22 days; ED50 [32]: ~25 mg/kg/day; remaining at 2 h, 1 µM [33]: 100%; Time (Plasmodium falciparum [34]): 23 days; Activity [35]: inactive
11 | Cc1cc(O)c2c(c1)C(=O)c1cc(OCCN3CCN(c4ccnc5cc(Cl)ccc45)CC3)cc(O)c1C2=O | > 10000 | – | – | – | – | 775 | > 13 | –
12 | Clc1ccc([C@@H](c2ccccc2)N2CCN(CCNc3ccnc4cc(Cl)ccc34)CC2)cc1 | 14000 | 9000 | 53 | 75 | 33 | 101 | 140 | half-life at 1 µM [36]: 46 min; Stability [24]: Stable; Time (Plasmodium falciparum [27]): 11 days; inhibition (Heme [8]): 100%; Stability [37]: Stable; Time (Plasmodium falciparum [38]): 12 days; Time (Plasmodium falciparum [15]): 7 days; remaining at 2 h, 1 µM [33]: 100%
13 | C[C@@H]1CC[C@H]2[C@@H](C)C(=O)O[C@@H]3O[C@@]4(C)CC[C@@H]1[C@]32OO4 [ARTEMISININ] | – | – | – | – | – | – | – | Time (Plasmodium falciparum [39]): 15 days; ED50 [40]: 17 mg/kg/day; ED50 [41]: 4 mg/kg/day; Time (Plasmodium falciparum [42]): 10 days

From ChEMBL document CHEMBL6153087, “Emoquine-1: A Hybrid Molecule Efficient against Multidrug-Resistant Plasmodium Parasites, Including the Artemisinin-Resistant Quiescent Stage, and Also Active In Vivo” (J Med Chem, 2025)
